Test [1] concerns the target human GABAA α5β2γ1 receptor (Homo sapiens (Human), UniProt P31644+Q8N1C3). The experiment in a line: Radioligand binding assay, competition for [3H]RO7239181, γ1-containing GABAA subtypes. The method, then: The affinity of compounds at GABAA γ1 subunit-containing receptors was measured by competition for [^3H]RO7239181 (67.3 Ci/mmol; Roche) binding to membranes from HEK293F cells (ThermoFisher R79007) expressing human (transiently transfected) receptors of composition α5β2γ1, α2β2γ1, α1β2γ1. For better protein expression of the α2 subunit-containing receptors, the 28 amino acid long signal peptide (Met1 to Ala28) of the human GABAA α2 subunit was substituted by the 31 amino acid long signal peptide (Met1 to Ser31) of human GABAA α5 subunit.
(§1) Harvested pellets from HEK293F cells expressing the different GABAA receptor subtypes were resuspended in Mannitol Buffer pH 7.2-7.4 (Mannitol 0.29 M, Triethylamine 10 mM, Acetic acid 10 mM, EDTA 1 mM plus protease inhibitors (20 tablets Complete, Roche Diagnostics Cat. No. 05 056 489 001 per liter)), washed two times and then resuspended at 1:10 to 1:15 dilution in the same buffer. Cell disruption was performed by stirring the suspension in a Parr vessel #4637 at 435 psi for 15 minutes, and then the suspensions were centrifuged at 1000×g for 15 minutes at 4° C. (Beckman Avanti J-HC; rotor JS-4.2). The supernatant (S1) was transferred in a 21 Schott flask and the pellet (P1) was resuspended with Mannitol Buffer up to 175 ml. The resuspended pellet was transferred into a 250 ml Corning centrifugal beaker and centrifuged at 1500×g for 10 minutes at 4° C. (Beckman Avanti J-HC; rotor JS-4.2). The supernatant (S1) was then transferred in the 21 Schott flask and the pellet was discarded. The supernatants (S1) were centrifuged in 500 ml Beckman polypropylene centrifugal beaker at 15'000×g for 30 minutes at 4° C. (Beckman Avanti J-20 XP; rotor JLA-10.500). The pellet (P2) was resuspended with Mannitol Buffer 1:1 and frozen at −80° C. The supernatant (S2) was centrifuged in 100 ml Beckman polypropylene centrifugal tubes at 48000×g for 50 minutes at 4° C. (Beckman Avanti J-20 XP; rotor JA-18). The supernatant (S3) was discarded and the pellet (P3) was resuspended with 1:1 Mannitol Buffer. The P2 and P3 protein concentration was determined with the BIORAD Standard assay method with bovine serum albumin as standard and measured on the NANO-Drop 1000. The membrane suspension was aliquots (500 μl per tube) and stored at −80° C. until required.
(§2) Membrane homogenates were resuspended and polytronised (Polytron PT1200E Kinematica AG) in Potassium Phosphate 10 mM, KCl 100 mM binding buffer at pH 7.4 to a final assay concentration determined with a previous experiment.
Radioligand binding assays were carried out in a volume of 200 μL (96-well plates) which contained 100 μL of cell membranes, [^3H]RO7239181 at a concentration of 1.5 nM (α5β2γ1) or 20-30 nM (α1β2γ1, α2β2γ1) and the test compound in the range of [0.3-10000]×10^−9 M. Nonspecific binding was defined by 10×10^−6 (α5β2γ1) and 30×10^−6 M RO7239181 and typically represented less than 5% (α5β2γ1) and less than 20% (α1β2γ1, α2β2γ1) of the total binding. Assays were incubated to equilibrium for 1 hour at 4° C. and then, membranes were filtered onto unifilter (96-well white microplate with bonded GF/C filters preincubated 20-50 minutes in 0.3% Polyethylenimine) with a Filtermate 196 harvester (Packard BioScience) and washed 4 times with cold Potassium Phosphate 10 mM pH 7.4, KCl 100 mM binding buffer. After anhydrousing, filter-retained radioactivity was detected by liquid scintillation counting. Ki values were calculated using Excel-Fit (Microsoft) and are the means of two determinations.

Test [2] concerns the target human GABAA α2β2γ1 receptor (Homo sapiens (Human), UniProt P47869+Q8N1C3). Described as above. The method, then:
The affinity of compounds at GABAA γ1 subunit-containing receptors was measured by competition for [^3H]RO7239181 (67.3 Ci/mmol; Roche) binding to membranes from HEK293F cells (ThermoFisher R79007) expressing human (transiently transfected) receptors of composition α5β2γ1, α2β2γ1, α1β2γ1.
as §1, §2
Assays were incubated to equilibrium for 1 hour at 4° C. and then, membranes were filtered onto unifilter (96-well white microplate with bonded GF/C filters preincubated 20-50 minutes in 0.3% Polyethylenimine) with a Filtermate 196 harvester (Packard BioScience) and washed 4 times with cold Potassium Phosphate 10 mM pH 7.4, KCl 100 mM binding buffer. After anhydrousing, filter-retained radioactivity was detected by liquid scintillation counting. Ki values were calculated using Excel-Fit (Microsoft) and are the means of two determinations.

Test [3] addresses human GABAA α1β3γ2 receptor (Homo sapiens (Human), UniProt P14867+P18507). Put plainly: Radioligand binding assay, competition for [3H]Flumazenil, γ2-containing GABAA subtypes. The note with it: for γ2/γ1 Selectivity Ratio: Ki α1β3γ2 (nM)/Ki α2β2γ1 (nM); for LogSel: Log[Ki α1β3γ2 (nM)/Ki α2β2γ1 (nM)]. The method, then: The affinity of compounds at GABAA γ2 subunit-containing receptors was measured by competition for [^3H]Flumazenil (81.1 Ci/mmol; Roche) binding to HEK293F cells expressing human (transiently transfected) receptors of composition α1β3γ2.
Harvested pellets from HEK293F cells expressing the different GABAA γ2 receptor subtypes were resuspended in Mannitol Buffer pH 7,2-7,4 and processed as described above for the cells expressing the GABAA γ1 subunit-containing receptors.
Assays were incubated to equilibrium for 1 hour at 4° C. and harvested onto GF/C uni-filters (Packard) by filtration using a Packard harvester and washing with ice-cold wash buffer (50 mM Tris; pH 7.5). After anhydrousing, filter-retained radioactivity was detected by liquid scintillation counting. Ki values were calculated using Excel-Fit (Microsoft) and are the means of two determinations.

Where [4] appears, read: Ki h-GABAA α2β2γ1, membranes of HEK293F cells, [3H]RO7239181 20-30 nM, Table 1.
Setting [5] is: Ki h-GABAA α2β2γ1, membranes of HEK293F cells, [3H]RO7239181 20-30 nM, Table 2.

Read-outs that look alike come from different tables or passages of the source.

In general, Ki refers to the dissociation constant of the complex between target and ligand, obtained from inhibition or displacement.

For `Cc1nnc2n1-c1sc3c(c1C(c1c(F)cccc1F)=N[C@H]2C)CCCCC3O` (mixture of isomers) [Example 9, (7S,16RS)-9-(2,6-difluorophenyl)-3,7-dimethyl-18-thia-2,4,5,8-tetrazatetracyclo[8.8.0.02,6.011,17]octadeca-1(10),3,5,8,11(17)-pentaen-16-ol], the Ki is 2.79 nM in test [1], 14.3 nM in test [2] (setting [4]), 14.3 nM in test [2] (setting [5]) and 1130 nM in test [3]. For the same compound, the “γ2/γ1 Selectivity Ratio” value in test [3] (Table 1) is reported as 79.4. In addition, the LogSel in test [3] (Table 1) is on record as 1.90.

With `Cc1nnc2n1-c1sc3c(c1C(c1c(F)cccc1F)=N[C@H]2C)CCCC(O)C3` (mixture of isomers) [Example 13, (7S,15RS)-9-(2,6-difluorophenyl)-3,7-dimethyl-18-thia-2,4,5,8-tetrazatetracyclo[8.8.0.02,6.011,17]octadeca-1(10),3,5,8,11(17)-pentaen-15-ol], the Ki was found to be 5.67 nM in test [1], 15.1 nM in test [2] (setting [4]), 15.1 nM in test [2] (setting [5]) and 1190 nM in test [3]. The “γ2/γ1 Selectivity Ratio” value in test [3] (Table 1) was determined as 78.9. Also, the LogSel in test [3] (Table 1) is 1.90.

For `Cc1nnc2n1-c1sc3c(c1C(c1c(F)cccc1F)=N[C@H]2C)CCCC[C@H]3F` (single isomer, unassigned) [Example 11], the Ki in test [1] stood at 2.7 nM; in test [2] (setting [4]) it was 17.4 nM; in test [2] (setting [5]), 17.5 nM; in test [3], 825 nM. Further, the “γ2/γ1 Selectivity Ratio” value in test [3] (Table 1) is reported as 47.3. For the same compound, the LogSel in test [3] (Table 1) is 1.67.

Consider `Cc1nnc2n1-c1sc3c(c1C(c1c(F)cccc1F)=N[C@H]2C)CCCC[C@@H]3F` (single isomer, unassigned) [Example 12], for which the Ki in test [1] was determined as 2.65 nM; in test [2] (setting [4]), 33.7 nM; in test [2] (setting [5]), 33.7 nM; in test [3], 1010 nM. Besides, the “γ2/γ1 Selectivity Ratio” value in test [3] (Table 1) turned out to be 29.9. The same compound yielded a LogSel in test [3] (Table 1) of 1.48.

On to `Cc1nnc2n1-c1sc3c(c1C(c1c(F)cccc1F)=N[C@H]2C)CC[C@H](F)CC3` (single isomer, unassigned) [Example 14], for which the Ki in test [1] was 4.87 nM; in test [2] (setting [4]), 38.4 nM; in test [2] (setting [5]), 38.4 nM; in test [3], 11000 nM. In test [3] (Table 1), the “γ2/γ1 Selectivity Ratio” value came out at 286.6. For the same compound, the LogSel in test [3] (Table 1) is reported as 2.46.

With `Cc1nnc2n1-c1sc3c(c1C(c1c(F)cccc1F)=N[C@H]2C)CC[C@@H](F)CC3` (single isomer, unassigned) [Example 15], the Ki in test [1] stood at 8 nM; in test [2] (setting [4]), 42.8 nM; in test [2] (setting [5]), 42.8 nM; in test [3], 3530 nM. Besides, in test [3] (Table 1), the “γ2/γ1 Selectivity Ratio” value was found to be 82.5. In addition, the LogSel in test [3] (Table 1) amounted to 1.92.

For the compound `Cc1nnc2n1-c1sc3c(c1C(c1c(F)cccc1F)=N[C@H]2C)CCC[C@H](F)C3` (single isomer, unassigned) [Example 17], the Ki in test [1] turned out to be 1.77 nM; in test [2] (setting [4]) it was 4.31 nM; in test [2] (setting [5]), 4.3 nM; in test [3], 584 nM. Besides, in test [3] (Table 1), the “γ2/γ1 Selectivity Ratio” value is 135.6. This compound showed a LogSel in test [3] (Table 1) of 2.13.

As to `Cc1nnc2n1-c1sc3c(c1C(c1c(F)cccc1F)=N[C@H]2C)CCC(F)C(F)C3` (single isomer, unassigned) [Example 34], the Ki in test [1] was 20.9 nM; in test [2] (setting [4]) it was 31.7 nM; in test [2] (setting [5]), 31.7 nM; in test [3], 10800 nM. In addition, in test [3] (Table 1), the “γ2/γ1 Selectivity Ratio” value amounted to 340.3. For the same compound, the LogSel in test [3] (Table 1) was determined as 2.53.

In the case of `Cc1nnc2n1-c1sc3c(c1C(c1c(F)cccc1F)=NC2)CCCCC3` [Example 1, 9-(2,6-difluorophenyl)-3-methyl-18-thia-2,4,5,8-tetrazatetracyclo[8.8.0.02,6.011,17]octadeca-1(10),3,5,8,11(17)-pentaene], the Ki in test [1] was found to be 1.4 nM; in test [2] (Ki h-GABAA α2β2γ1, Table 3, reference compounds and examples), 7.5 nM; in test [2] (setting [4]), 7.5 nM; in test [2] (setting [5]), 7.5 nM; in test [3], 374 nM; in test [3] (read-out: Ki h-GABAA α1β3γ2, Table 3, reference compounds and examples) it was 374 nM. In addition, the “γ2/γ1 Selectivity Ratio” value in test [3] (Table 1) and in test [3] (Table 3) was 49.6 throughout. The LogSel in test [3] (Table 1) amounted to 1.70; in test [3] (Table 3), 1.7.

Take `Cc1nnc2n1-c1sc3c(c1C(c1c(F)cccc1F)=N[C@H]2C)CCCCC3` [Example 2, (7S)-9-(2,6-difluorophenyl)-3,7-dimethyl-18-thia-2,4,5,8-tetrazatetracyclo[8.8.0.02,6.011,17]octadeca-1(10),3,5,8,11(17)-pentaene]: the Ki in test [1] is 1.7 nM; in test [2] (setting [4]) it was 7.4 nM; in test [2] (setting [5]) it was 7.4 nM; in test [3] it was 994 nM. For the same compound, the “γ2/γ1 Selectivity Ratio” value in test [3] (Table 1) is recorded as 133.9. This compound displayed a LogSel in test [3] (Table 1) of 2.13.

Take `C[C@@H]1N=C(c2c(F)cccc2F)c2c(sc3c2CCCCC3)-n2c(C3CC3)nnc21` [Example 3, (7S)-3-cyclopropyl-9-(2,6-difluorophenyl)-7-methyl-18-thia-2,4,5,8-tetrazatetracyclo[8.8.0.02,6.011,17]octadeca-1(10),3,5,8,11(17)-pentaene]: the Ki is 3.69 nM in test [1], 26.6 nM in test [2] (setting [4]), 26.7 nM in test [2] (setting [5]) and 1360 nM in test [3]. In test [3] (Table 1), the “γ2/γ1 Selectivity Ratio” value stood at 51.0. This compound showed a LogSel in test [3] (Table 1) of 1.71.

On to `C[C@@H]1N=C(c2c(F)cccc2F)c2c(sc3c2CCCCC3)-n2c(-c3cccnn3)nnc21` [Example 4, (7S)-9-(2,6-difluorophenyl)-7-methyl-3-pyridazin-3-yl-18-thia-2,4,5,8-tetrazatetracyclo[8.8.0.02,6.011,17]octadeca-1(10),3,5,8,11(17)-pentaene], for which the Ki came to 8.65 nM in test [1], 47.8 nM in test [2] (setting [4]), 47.8 nM in test [2] (setting [5]) and 4520 nM in test [3]. The “γ2/γ1 Selectivity Ratio” value in test [3] (Table 1) was determined as 94.6. Further, in test [3] (Table 1), the LogSel is 1.98.

For the origin of these results see patent US20240294543A1, “CYCLOHEPTA-THIENO-DIAZEPINE DERIVATIVES AS GABA A GAMMA1 PAM” (Hoffmann-La Roche Inc., priority 2021, published 2024).
